The target in experiment [1] is Integrin alpha-V/beta-3 (Homo sapiens) (UniProt P05106+P06756). Put plainly: Inhibition of alpha-V-beta-3 receptor. The experiment is classed as protein-complex assay.
Experiment [2] has as its target Integrin alpha-V/beta-5 (Homo sapiens) (UniProt P06756+P18084). Put plainly: Inhibition of alpha-V-beta-5 receptor. The experiment is classed as protein-complex assay.

SMILES strings stand for the structures.

Data on four compounds can be found in ChEMBL document CHEMBL1146186, “Synthesis and biological evaluation of type VI beta-turn templated RGD peptidomimetics” (Bioorg Med Chem Lett, 2006).

Take `N=C(N)NCCC[C@@H]1NC(=O)[C@H]2C/C=C\C[C@H](NC(=O)[C@H](CC(=O)O)NC(=O)CNC1=O)C(=O)N2`: the Activity in experiment [1] was 0.159 µM; in experiment [2] it was 0.538 µM.

For `N=C(N)NCCC[C@@H]1NC(=O)[C@@H]2CCCC[C@@H](NC(=O)[C@H](CC(=O)O)NC(=O)CNC1=O)C(=O)N2`, the Activity in experiment [1] is 0.615 µM; in experiment [2], more than 5 µM.

For `N=C(N)NCCC[C@@H]1NC(=O)[C@@H]2C/C=C\C[C@@H](NC(=O)[C@H](CC(=O)O)NC(=O)CNC1=O)C(=O)N2`, the Activity in experiment [1] was 0.925 µM; in experiment [2] it was more than 5 µM.

For `N=C(N)NCCC[C@@H]1NC(=O)[C@H]2CCCC[C@H](NC(=O)[C@H](CC(=O)O)NC(=O)CNC1=O)C(=O)N2`, the figures for the Activity in experiment [1] and in experiment [2] were 0.28 µM and more than 5 µM, respectively.
